Results reported in paper PMC6792352, “Limited Chemical Structural Diversity Found to Modulate Thyroid Hormone Receptor in the Tox21 Chemical Library” (Environmental Health Perspectives, 2019).
Where two headings read alike, the source gives them in different places.

Assays:
[1] = system: Tox21 cell viability assays (different cell types); test: Global cytotoxicity: eighteen Tox21 cell viability assays; assay type: cell-based
[2] = system: thyroid hormone receptor (endogenous TRα and TRβ); test: GH3-TRE-Ag-Followup confirmation (TOX21_TR_LUC_GH3_Agonist_Followup, aeid 2226); assay type: cell-based, rat; conditions: for GH3-TRE-Ag-Followup hitc: hit call from tcpl; for AC50: read-out: GH3-TRE-Ag-Followup AC50
[3] = system: thyroid hormone receptor (TR); test: Classification of TR actives across characterization assays (TR-Ag / RXR-Ag; TR model binary); design: key to Categorization Code: FP, false positive; conditions: for Categorization Code: TR agonist characterization; for TR_Model_Binary_Agonist / TR_Model_Binary_Antagonist: candidate chemicals in Tables 2 and 3 define actives
Source text: Active rate comparison between receptors. […]; [Kleinstreuer et al. 2017]). We first removed chemicals classified as pharmaceuticals because these sets of chemicals are biased toward drugs targeting estrogen receptors and androgen receptors. […]. For TR, we cross-referenced these same chemicals for testing against TR and used candidate chemicals in Tables 2 and 3 to define active rates.
Complete results from both GH3-TRE qHTS agonist, antagonist, and viability mode for the 8,305 compounds are provided in Excel Table S2. […]. […]. Together with some potential false negatives, these chemicals, totaling 84 in all, were screened for activity in a series of assays for confirmation in the GH3-TRE-Ag assay; specificity screening in the TRβ-UAS-bla HEK 293T and RXRα-UAS-bla HEK 293T mammalian one-hybrid assays; viability assays for the HEK293T parental cell line; and orthogonal screening in two TR:coactivator recruitment assays, TRa-coa and TRb-coa. […].

[4] = target: T1, TRα ligand-binding domain (Homo sapiens, UniProt P10827); test: TRa-coa LanthaScreen TR-FRET coactivator (SRC-2 peptide) recruitment, agonist (TOX21_TRA_COA_Agonist_Followup_ratio, aeid 2230); assay type: biochemical; conditions: for AC50 / TRa-coa hitc: agonist; for AC50: read-out: TRa-coa AC50; for TRa-coa hitc: hit call from tcpl; for Emax: read-out: EMax (% of Control) tra-coa-agonist-followup-1
T1 construct: the receptor LBDs expressed as glutathione S-transferase (GST) fusion proteins; purchased

[5] = system: thyroid hormone receptor (endogenous TRα and TRβ); test: GH3-TRE-Ag primary qHTS, luciferase reporter, agonist mode (TOX21_TR_LUC_GH3_Agonist, aeid 803); assay type: cell-based, rat; conditions: for GH3-TRE-Ag AC50 hitc: hit call from tcpl
[6] = target: T2, human TRβ ligand-binding domain (Homo sapiens, UniProt P10828); test: TRb-coa LanthaScreen TR-FRET coactivator (SRC-2 peptide) recruitment, agonist (TOX21_TRB_COA_Agonist_Followup_ratio, aeid 2244); assay type: biochemical; design: host or cells: GeneBLAzer UAS-bla HEK 293T; conditions: for AC50 / TRb-coa hitc: agonist; for AC50: read-out: TRb-coa AC50; for TRb-coa hitc: hit call from tcpl; for Emax: read-out: EMax (% of Control) trb-coa-agonist-followup-1
T2 sequence (P10828 217-461 limits assumed): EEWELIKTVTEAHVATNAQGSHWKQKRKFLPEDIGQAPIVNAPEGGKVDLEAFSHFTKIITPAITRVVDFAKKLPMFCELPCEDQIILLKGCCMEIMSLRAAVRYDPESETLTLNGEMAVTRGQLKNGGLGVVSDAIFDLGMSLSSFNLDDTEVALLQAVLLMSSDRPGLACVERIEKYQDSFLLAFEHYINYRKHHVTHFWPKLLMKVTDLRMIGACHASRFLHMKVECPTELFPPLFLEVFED

[7] = target: T2, human TRβ ligand-binding domain; test: TRb-bla agonist mammalian one-hybrid beta-lactamase assay (TOX21_TRB_BLA_Agonist_Followup_ratio, aeid 2236); assay type: cell-based; design: host or cells: GeneBLAzer UAS-bla HEK 293T; conditions: for AC50 / TRb-bla hitc: agonist; for AC50: read-out: TRb-bla AC50; for TRb-bla hitc: hit call from tcpl; for Emax: read-out: EMax (% of Control) trb-bla-agonist-followup-1
human RXRα = target: T3, human RXRα (Homo sapiens, UniProt P19793); test: RXRa-bla-Ag mammalian one-hybrid beta-lactamase assay (TOX21_TR_RXR_BLA_Agonist_Followup_ratio, aeid 2253); assay type: cell-based; conditions: for tr-followup-rxr-bla-agonist-1 hitc: hit call from tcpl; for AC50: read-out: tr-followup-rxr-bla-agonist-1 AC50; for Emax: read-out: EMax (% of Control) tr-followup-rxr-bla-agonist-1
T3 construct: host or cells: GeneBLAzer UAS-bla HEK 293T
T3 sequence (P19793 227-458 limits assumed): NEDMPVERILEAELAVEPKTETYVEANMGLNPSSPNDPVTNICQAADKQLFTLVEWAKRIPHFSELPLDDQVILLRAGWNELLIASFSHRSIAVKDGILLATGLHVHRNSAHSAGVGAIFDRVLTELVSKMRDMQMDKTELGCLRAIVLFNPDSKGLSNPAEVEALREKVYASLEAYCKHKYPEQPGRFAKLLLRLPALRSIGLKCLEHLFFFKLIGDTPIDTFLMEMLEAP

GH3-TRE-Luc cell line = test: GH3-TRE-Via cell viability, CellTiter-Fluor (TOX21_TR_LUC_GH3_Antagonist_viability, aeid 805); conditions: for TR_LUC_GH3_Antagonist_viability hitc: hit call from tcpl; for AC50: read-out: TR_LUC_GH3_Antagonist_viability AC50
in vitro = conditions: rat, gh3-tre-luc cells, AC50 (uM) modified / 1000
[8] = median over Tox21 viability assays

T1 sequence (P10827 163-410 isoform P10827-2 limits assumed, other chains not shown): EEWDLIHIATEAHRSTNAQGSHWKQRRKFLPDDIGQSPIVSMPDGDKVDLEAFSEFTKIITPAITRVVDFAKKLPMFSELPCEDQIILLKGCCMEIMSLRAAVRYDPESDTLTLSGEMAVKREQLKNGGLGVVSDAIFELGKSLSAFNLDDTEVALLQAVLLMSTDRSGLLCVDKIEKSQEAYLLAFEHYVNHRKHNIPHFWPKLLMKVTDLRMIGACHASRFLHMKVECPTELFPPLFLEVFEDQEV

SMILES | GLOBAL CYTOTOXICITY cytotox.median [1, 8] | EMax (% of Control) gh3-tre-agonist-followup-1_agonist [2] | GH3-TRE-Ag-Followup hitc [2] | Categorization Code [3] | EMax (% of Control) tra-coa-agonist-followup-1 [4] | AC50 [4] [µM] | TRa-coa hitc [4] | EMax (% of Control) gh3-tre-agonist [5] | GH3-TRE-Ag AC50 hitc [5] | EMax (% of Control) trb-coa-agonist-followup-1 [6] | AC50 [6] [µM] | TRb-coa hitc [6] | AC50 [7] [µM] | TRb-bla hitc [7] | EMax (% of Control) tr-followup-rxr-bla-agonist-1 (human RXRα) | tr-followup-rxr-bla-agonist-1 hitc (human RXRα) | AC50 (human RXRα) [µM] | CC50 at 24 h (in vitro) [µM] | GLOBAL CYTOTOXICITY cytotox.number_Active [1] | AC50 [2] [µM] | other results
CC1(C)COP(Oc2ccccc2)OC1 | >92 | 5.2 % of Control | 1 | FP | -1.9 % of Control | > 92 | 0 | 30.2 % of Control | 1 | -0.3 % of Control | > 92 | 0 | > 92 | 0 | 26.5 % of Control | 0 | > 92 | – | – | – | GLOBAL CYTOTOXICITY cytotox.number_Active ([1]; # active of 18 total Tox21 viability assays): 0; AC50 ([5]; read-out: GH3-TRE-Ag AC50): 71.3 µM; TR_LUC_GH3_Antagonist_viability hitc (GH3-TRE-Luc cell line): 0; AC50 (GH3-TRE-Luc cell line): > 92 µM
CC(=O)OC(C)c1ccccc1 (racemic) [(+/-)-alpha-Methylbenzyl acetate] | – | – | – | – | – | – | – | – | – | – | – | – | – | – | – | – | – | > 90 | – | – | TR_Model_Binary_Agonist [3]: 0; TR_Model_Binary_Antagonist [3]: 0
Cc1cccc(C)c1[N+](=O)[O-] [1,3-Dimethyl-2-nitrobenzene] | – | 9.2 % of Control | 0 | FP | – | > 92 | 0 | 18.9 % of Control | 1 | – | > 92 | 0 | > 92 | 0 | – | 0 | > 92 | > 90 | 0 | > 92 | GLOBAL CYTOTOXICITY cytotox.median [1]: >92; Emax [4]: -0.13%; Emax [6]: -0.3%; Emax [7]: 6.6%; Emax (human RXRα): 11.4%
CCCCCCCCCC=CCC1CC(=O)OC1=O (stereo not shown) [(2-Dodecenyl)succinic anhydride] | – | – | – | – | – | – | – | – | – | – | – | – | – | – | – | – | – | > 90 | – | – | TR_Model_Binary_Agonist [3]: 0; TR_Model_Binary_Antagonist [3]: 0
Cc1ccc(O)cc1 [Cresol] | – | 41.4 % of Control | 1 | FP | 20.0 % of Control | > 92 | 0 | 51.4 % of Control | 1 | 14.8 % of Control | > 92 | 0 | > 92 | 0 | 12.6 % of Control | 0 | > 92 | – | 0 | 23.7 | GLOBAL CYTOTOXICITY cytotox.median [1]: >92; EMax (% of Control) trb-bla-agonist-followup-1 [7]: 3.0 % of Control; TR_LUC_GH3_Antagonist_viability hitc (GH3-TRE-Luc cell line): 0; AC50 (GH3-TRE-Luc cell line): > 92 µM
Cc1occc(=O)c1O [Maltol] | >92 | 2.6 % of Control | 0 | FP | – | > 92 | 0 | 11.6 % of Control | 1 | – | > 92 | 0 | > 92 | 0 | – | 0 | > 92 | > 90 | 0 | > 92 | Emax [4]: -0.369%; Emax [6]: -0.3%; Emax [7]: 2.7%; Emax (human RXRα): -0.248%
